From patent US11497212B2, “Substituted thiophenyl uracils, salts thereof and the use thereof as herbicidal agents” (Syngenta Crop Protection AG, priority 2017, dated 2022)

Key:
Format in all cases: in vivo
Matricaria inodora [1] = test: Herbicidal action pre-emergence (greenhouse pot trial); details: scored after about 3 weeks
How it was run: (§1)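 Pre-emergence soil-surface spray, 320 g/ha or lower, WP/EC formulations in water with 0.5% additive, 600 L/ha. Greenhouse, ~3 wk. Visual % efficacy vs untreated controls (100% = plants dead, 0% = like control).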

Abutilon theophrasti [2] = test: as above; details: scored after about 3 weeks
How it was run: as §1

Amaranthus retroflexus [3] = test: as above; details: scored after about 3 weeks
How it was run: as §1

Zea mays [4] = test: Crop compatibility post-emergence (greenhouse pot trial); details: application rate 20 g/ha
How it was run: (§2)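 Visual % damage vs untreated controls, ~3 wk post-spray (100% = plants died, 0% = as control). Plants in sandy loam, greenhouse, sprayed at one-leaf stage (2–3 wk after sowing); WP/EC in water + 0.5% additive, 600 L/ha.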

Triticum aestivum = test: as above; details: application rate 20 g/ha
How it was run: as §2

Oryza sativa [5] = test: as above; details: application rate 20 g/ha
How it was run: as §2

Stellaria media [6] = test: Herbicidal action post-emergence (greenhouse pot trial); details: scored visually after about 3 weeks vs untreated controls
How it was run: (§3)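 Post-emergence spray at one-leaf stage (2–3 wk after sowing, sandy loam, greenhouse); WP/EC in water + 0.5% additive; 600 L/ha; rate 80 g/ha or less. Visual % efficacy at ~3 wk vs untreated (100 = dead).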

Matricaria inodora [7] = test: as above; details: scored visually after about 3 weeks vs untreated controls
How it was run: as §3

Pharbitis purpurea [8] = test: as above
How it was run: as §3

Viola tricolor [9] = test: as above
How it was run: as §3

Setaria viridis [10] = test: as above; details: scored visually after about 3 weeks vs untreated controls
How it was run: as §3

Abutilon theophrasti [11] = test: as above; details: scored visually after about 3 weeks vs untreated controls
How it was run: as §3

Amaranthus retroflexus [12] = test: as above; details: scored visually after about 3 weeks vs untreated controls
How it was run: as §3

Digitaria sanguinalis = test: as above; details: application rate 20 g/ha
How it was run: as §3

Veronica persica [13] = test: as above
How it was run: as §3

Glycine max [14] = test: Crop compatibility pre-emergence (greenhouse pot trial); details: application rate 80 g/ha, effect vs untreated controls
How it was run: (§4)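 Visual percentage scoring against untreated controls, about 3 weeks after treatment, gave the crop injury values (100% = plants died, 0% = like controls). Compounds, as wettable powders or emulsion concentrates, were sprayed onto covering soil over sown seeds at 600 L/ha water with 0.5% additive.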

Zea mays [15] = test: as above; details: application rate 80 g/ha, effect vs untreated controls
How it was run: as §4

Oryza sativa [16] = test: as above; details: application rate 80 g/ha, effect vs untreated controls
How it was run: as §4

Stellaria media [17] = test: Herbicidal action pre-emergence (greenhouse pot trial); details: application rate 320 g/ha, scored after about 3 weeks
How it was run: as §1

Echinochloa crus-galli [18] = test: as above; details: application rate 320 g/ha, scored after about 3 weeks
How it was run: as §1

Cyperus esculentus = test: as above; details: application rate 320 g/ha
How it was run: as §1

Avena fatua [19] = test: as above; details: application rate 320 g/ha
How it was run: as §1

Alopecurus myosuroides = test: as above; details: application rate 320 g/ha, scored after about 3 weeks
How it was run: as §1

Pharbitis purpurea [20] = test: as above; details: application rate 320 g/ha
How it was run: as §1

Viola tricolor [21] = test: as above; details: application rate 320 g/ha, scored after about 3 weeks
How it was run: as §1

Setaria viridis [22] = test: as above; details: application rate 320 g/ha, scored after about 3 weeks
How it was run: as §1

Hordeum murinum [23] = test: as above; details: application rate 320 g/ha
How it was run: as §1

Lolium rigidum [24] = test: as above; details: application rate 320 g/ha
How it was run: as §1

Veronica persica [25] = test: as above; details: application rate 320 g/ha
How it was run: as §1

Glycine max [26] = test: Crop compatibility post-emergence (greenhouse pot trial); details: application rate 20 g/ha
How it was run: as §2

Polygonum convolvulus = test: Herbicidal action post-emergence (greenhouse pot trial); details: application rate 80 g/ha, scored visually after about 3 weeks vs untreated controls
How it was run: as §3

Echinochloa crus-galli [27] = test: as above; details: application rate 80 g/ha, scored visually after about 3 weeks vs untreated controls
How it was run: as §3

Avena fatua [28] = test: as above; details: application rate 80 g/ha, scored visually after about 3 weeks vs untreated controls
How it was run: as §3

Hordeum murinum [29] = test: as above; details: application rate 80 g/ha, scored visually after about 3 weeks vs untreated controls
How it was run: as §3

Lolium rigidum [30] = test: as above; details: application rate 80 g/ha, scored visually after about 3 weeks vs untreated controls
How it was run: as §3

CC(Sc1cc(-n2c(=O)cc(C(F)(F)F)n(C)c2=O)c(F)cc1Cl)C(=O)OC1CCCOC1 (centres unmarked) [I.1-126]
Matricaria inodora (Efficacy in %) (Matricaria inodora [1]; application rate 80 g/ha): 100% | Abutilon theophrasti (Efficacy in %) (Abutilon theophrasti [2]; application rate 80 g/ha): 100% | Amaranthus retroflexus (Efficacy in %) (Amaranthus retroflexus [3]; application rate 80 g/ha): 100% | Zea mays (Efficacy in %) (Zea mays [4]): 20% | Triticum aestivum (Efficacy in %) (Triticum aestivum): 20% | Oryza sativa (Efficacy in %) (Oryza sativa [5]): 0% | Stellaria media (Efficacy in %) (Stellaria media [6]; application rate 20 g/ha): 100% | Matricaria inodora (Efficacy in %) (Matricaria inodora [7]; application rate 20 g/ha): 90% | Pharbitis purpurea (Efficacy in %) (Pharbitis purpurea [8]; application rate 20 g/ha): 100% | Viola tricolor (Efficacy in %) (Viola tricolor [9]; application rate 20 g/ha): 100% | Setaria viridis (Efficacy in %) (Setaria viridis [10]; application rate 20 g/ha): 100% | Abutilon theophrasti (Efficacy in %) (Abutilon theophrasti [11]; application rate 20 g/ha): 100% | Amaranthus retroflexus (Efficacy in %) (Amaranthus retroflexus [12]; application rate 20 g/ha): 100% | Digitaria sanguinalis (Efficacy in %) (Digitaria sanguinalis): 80% | Veronica persica (Efficacy in %) (Veronica persica [13]; application rate 20 g/ha): 100% | Glycine max (Efficacy in %) (Glycine max [14]): 10% | Zea mays (Efficacy in %) (Zea mays [15]): 0% | Oryza sativa (Efficacy in %) (Oryza sativa [16]): 20%

CC(Sc1cc(-n2c(=O)cc(C(F)(F)F)n(C)c2=O)c(F)cc1Cl)C(=O)OCC1CCOC1 (centres unmarked) [I.1-72]
Stellaria media (Efficacy in %) (Stellaria media [17]): 100% | Echinochloa crus-galli (Efficacy in %) (Echinochloa crus-galli [18]): 100% | Cyperus esculentus (Efficacy in %) (Cyperus esculentus): 80% | Avena fatua (Efficacy in %) (Avena fatua [19]): 100% | Alopecurus myosuroides (Efficacy in %) (Alopecurus myosuroides): 90% | Matricaria inodora (Efficacy in %) (Matricaria inodora [1]; application rate 320 g/ha): 100% | Pharbitis purpurea (Efficacy in %) (Pharbitis purpurea [20]): 100% | Viola tricolor (Efficacy in %) (Viola tricolor [21]): 100% | Setaria viridis (Efficacy in %) (Setaria viridis [22]): 100% | Abutilon theophrasti (Efficacy in %) (Abutilon theophrasti [2]; application rate 320 g/ha): 100% | Hordeum murinum (Efficacy in %) (Hordeum murinum [23]): 90% | Amaranthus retroflexus (Efficacy in %) (Amaranthus retroflexus [3]; application rate 320 g/ha): 100% | Lolium rigidum (Efficacy in %) (Lolium rigidum [24]): 100% | Veronica persica (Efficacy in %) (Veronica persica [25]): 100% | Glycine max (Efficacy in %) (Glycine max [26]): 10% | Zea mays (Efficacy in %) (Zea mays [4]): 20% | Triticum aestivum (Efficacy in %) (Triticum aestivum): 0% | Stellaria media (Efficacy in %) (Stellaria media [6]; application rate 80 g/ha): 100% | Polygonum convolvulus (Efficacy in %) (Polygonum convolvulus): 100% | Echinochloa crus-galli (Efficacy in %) (Echinochloa crus-galli [27]): 100% | Avena fatua (Efficacy in %) (Avena fatua [28]): 80% | Matricaria inodora (Efficacy in %) (Matricaria inodora [7]; application rate 80 g/ha): 100% | Pharbitis purpurea (Efficacy in %) (Pharbitis purpurea [8]; application rate 80 g/ha): 100% | Viola tricolor (Efficacy in %) (Viola tricolor [9]; application rate 80 g/ha): 100% | Setaria viridis (Efficacy in %) (Setaria viridis [10]; application rate 80 g/ha): 100% | Abutilon theophrasti (Efficacy in %) (Abutilon theophrasti [11]; application rate 80 g/ha): 100% | Hordeum murinum (Efficacy in %) (Hordeum murinum [29]): 80% | Amaranthus retroflexus (Efficacy in %) (Amaranthus retroflexus [12]; application rate 80 g/ha): 100% | Lolium rigidum (Efficacy in %) (Lolium rigidum [30]): 100% | Veronica persica (Efficacy in %) (Veronica persica [13]; application rate 80 g/ha): 100% | Glycine max (Efficacy in %) (Glycine max [14]): 20% | Zea mays (Efficacy in %) (Zea mays [15]): 20%
